Assay results as given in US9408908B2, “Combination adjuvant formulation” (University of Saskatchewan, priority 2008, dated 2016).
“Also recorded” adds a separate entry of the source. No end group written: not given here.

Legend:
human PBMC [1] = assay: Chemokine induction by host defense peptides in human PBMC (ELISA); assay type: cell-based
Experimental: (§1) These peptides were tested for induction of chemokines and cytokines in human PBMCs. Human PBMCs stimulated with 20 and 100 μg/ml of host defense peptides were assessed for various cytokines and chemokines at the 24 hour time-point by ELISA (eBiosciences). […] Subsequently, selected host defense peptides were examined for protective activity in vivo. Briefly, BALB/c mice were administered peptides (8 mg/kg) by i.p. administration 4 h prior to infection. Mice were infected with 8.4×10^7 S. aureus in 5% mucin by i.p. administration. Bacterial counts in the peritoneal lavage were determined in 24 h after the initiation of infection.

ΔF from BRSV = assay: Immunization of mice with BRSV ΔF protein co-formulated with CpG ODN 1826, indolicidin and/or polyphosphazene; assay type: in vivo, C57BL/6 and Balb/c mice; conditions: overall conclusion
Experimental: Six- to eight-week-old female C57BL/6 mice (Charles River, Montreal, Quebec) were immunized twice subcutaneously at 3 week intervals with 100 μL of vaccine containing 0.5 μg ΔF from BRSV (a truncated form of the BRSV F protein engineered to lack the transmembrane domain (aa1-522 only), either alone, or co-formulated with CpG oligonucleotide 1826 (CpG ODN), indolicidin (indol), and/or polyphosphazene (PP). CpG ODN, indolicidin and polyphosphazene were given at doses of 10 μg, 20 μg, and 50 μg, respectively. Negative control animals were immunized with buffer (placebo). CpG ODN 1826 ([…]) (SEQ ID NO:8) was provided by Merial (Lyon, France), and contained a phosphorothioate-modified backbone. […]
Statistical analysis was carried out using GraphPad Prism version 5.00 for Windows (GraphPad Software, San Diego, Calif.). Differences between groups were determined using a Mann-Whitney U test.
CpG ODN 1826, indolicidin, and polyphosphazene were examined for their ability to enhance antigen-specific immune responses when administered with the ΔF protein, either alone, or co-formulated with CpG, indolicidin, and/or PP. […] Mice were immunized twice subcutaneously, and serum total anti-ΔF IgG titers were measured after each immunization by ELISA. […]

[2] = Effect of indolicidin dose on adjuvant activity with CpG ODN 1826 (unpublished results); assay type: in vivo; conditions: 20 μg of peptide co-administered with CpG ODN 1826
Excerpt: Adjuvant doses were selected based on previous reports of adjuvanticity of the individual components.

[3] = Cytokine production by indolicidin with CpG ODN (unpublished results)
Excerpt: The combination of indolicidin, however, along with CpG ODN and polyphosphazene enhanced ΔF-specific humoral and cellular immune responses, and generated a Th1 response. […] The combination of all three adjuvants was required for optimal enhancement of the immune response, as well as to shift the resulting anti-ΔF immune response from Th2 to Th1. However the mechanisms of this immune enhancement are unclear. Without being bound by a particular theory, the enhanced immunogenicity and Th1-biasing effect of the combination with all three adjuvants with ΔF could be as a result of the stabilization and prolonged effect of CpG ODN and/or ΔF, and an increased uptake of CpG ODN and ΔF into antigen-presenting cells.

[4] = tested on: human PBMCs and human red blood cells; assay: Cytotoxicity: LDH release in human PBMCs and haemolysis of human red blood cells
[5] = tested on: human cord blood mononuclear cells; assay: Peptide activity in human cord blood mononuclear cells; assay type: cell-based
Experimental: as §1

human PBMCs = assay: MCP-1 induction by nucleic acid-peptide formulations in human PBMCs; assay type: cell-based; conditions: human PBMCs 24 hours; coupled with peptide 1002 or 1018; four biological replicates
Experimental: Chemokine induction by nucleic acid-peptide formulations Direct complex formation between the various nucleic acids and synthetic host defense peptides was verified prior to human PBMC stimulations. For determination of the immunostimulatory activities of various nucleic acids in complex with host defense peptides in vitro, the following experiment was conducted. Various combinations of CpG ODN 10103, non-CpG ODN 5′[…]3′ (SEQ ID NO:13), poly(I:C) and the synthetic host defense peptides 1002 and 1018 were examined for chemokine induction. Briefly, nucleic acids and peptide were co-incubated for 30 min at 37° C. prior to cell stimulations. Human PBMCs were stimulated with the various formulations for 24 hours and levels of MCP-1 were measured by ELISA. Optimal ratios 2:1, 1:1 and 1:2 nucleic acid:host defense peptide (μg/ml:μg/ml) were identified between concentration thresholds of 40 μg/ml and 10 μg/ml. The results were from four biological replicates.

S. aureus = assay: Protection against S. aureus infection in mice; assay type: in vivo, BALB/c mice; conditions: 8 mg/kg i.p. 4 h prior to infection; bacterial counts in peritoneal lavage at 24 h
Experimental: as §1

human PBMC [6] = assay: MCP-1 induction by triple adjuvant formulations (peptide, CpG 10103, PCPP) in human PBMC; assay type: cell-based; conditions: 24 hours, peptide 40 μg/ml, CpG 20 μg/ml, no PCPP, average of 4 biological replicates
Experimental: The effect of PCPP addition on chemokine induction by peptide-CpG 10103 complexes was assessed by the induction of MCP-1 in human PBMCs. Briefly, peptide-CpG complexes were formed as previously described and following incubation PCPP, with or without MgCl2 (pH 7.4), was added to the peptide-CpG complexes at various concentrations and incubated for 30 min at 37° C. Following incubation, human PBMCs were stimulated with the various formulations for 24 hours and levels of MCP-1 were measured by ELISA.

[7] = Table 2, JK peptides, human PBMCs, peptide concentration 20 μg/ml
[8] = Table 2, JK peptides, human PBMCs, peptide concentration 100 μg/ml
[9] = Table 3, indolicidin derivatives, human PBMCs, peptide concentration 20 (unit not given)
[10] = Table 3, indolicidin derivatives, human PBMCs, peptide concentration 100 (unit not given)
[11] = human PBMC, peptide concentration 20 μg/ml
[12] = human PBMC, peptide concentration 20 μg/ml, 24 hour, ELISA
[13] = human PBMC, peptide concentration 100 μg/ml
[14] = human PBMC, peptide concentration 100 μg/ml, 24 hour, ELISA

JK5: peptide VQWRAIRVRVIR (SEQ ID NO:6) (JK5)
Chemokine Induction Gro-α (human PBMC [1]; [7]): 317 pg/mL
Chemokine Induction MCP-1 (human PBMC [1]; [7]): 673 pg/mL
Chemokine Induction Gro-α (human PBMC [1]; [8]): 123 pg/mL
Chemokine Induction MCP-1 (human PBMC [1]; [8]): 529 pg/mL

CpG ODN 1826
type and enhancement of ΔF-specific immune response (ΔF from BRSV): shift towards a Th1 or balanced immune response

JK1: peptide VFLRRIRVIVIR (SEQ ID NO:2) (JK1)
Chemokine Induction Gro-α (human PBMC [1]; [7]): 377 pg/mL
Chemokine Induction MCP-1 (human PBMC [1]; [7]): 663 pg/mL
Chemokine Induction Gro-α (human PBMC [1]; [8]): 105 pg/mL
Chemokine Induction MCP-1 (human PBMC [1]; [8]): 1226 pg/mL

JK6: peptide VQWRRIRVWVIR (SEQ ID NO:7) (JK6)
Chemokine Induction Gro-α (human PBMC [1]; [7]): 254 pg/mL
Chemokine Induction MCP-1 (human PBMC [1]; [7]): 721 pg/mL
Chemokine Induction Gro-α (human PBMC [1]; [8]): 68 pg/mL
Chemokine Induction MCP-1 (human PBMC [1]; [8]): 671 pg/mL

indolicidin [reference compound]
adjuvant activity and class switching to IgG2a by dose [2]: enhanced antigen-specific immune responses and effected class switching to IgG2a better than when the peptide was administered at a 10-fold higher dose
Chemokine Induction Gro-α (human PBMC [1]; [9]): 84 pg/mL
Chemokine Induction MCP-1 (human PBMC [1]; [9]): 245 pg/mL
Chemokine Induction Gro-α (human PBMC [1]; [10]): 846 pg/mL
Chemokine Induction MCP-1 (human PBMC [1]; [10]): 3120 pg/mL
production of Th1 cytokines IL-12 and IFN-γ and chemotactic factor MCP-1 [3]: acts synergistically with CpG ODN
type and enhancement of ΔF-specific immune response (ΔF from BRSV): sustain the type-2 immune response; also recorded: did not appear to be an effective adjuvant

VRLIVAVRIWRR-NH2 [Peptide 1018]
cytotoxicity (LDH release in human PBMCs, haemolysis of human red blood cells) [4]: minimal cytotoxicity

HH18: host defense peptide IWVIWRR (SEQ ID NO:21) (HH18)
Chemokine Induction Gro-α (human PBMC [1]; [11]): 865 pg/mL
Chemokine Induction MCP-3 (human PBMC [1]; [11]): 32 pg/mL
Chemokine Induction MCP-1 (human PBMC [1]; [12]): 1111 pg/mL
Chemokine Induction Gro-α (human PBMC [1]; [13]): 2964 pg/mL
Chemokine Induction MCP-3 (human PBMC [1]; [13]): 431 pg/mL
Chemokine Induction MCP-1 (human PBMC [1]; [14]): 9608 pg/mL
induction of chemokines and cytokines in human PBMCs (ranking in panel) (human PBMC [1]; panel of 20 HH-class peptides, 20 and 100 μg/ml, 24 hour): most active peptides
activity in human cord blood mononuclear cells [5]: further confirmed

polyriboinosinic acid-polyribocytidylic acid [poly(I:C)]
induction of MCP-1 versus individual components (human PBMCs): synergistic induction of MCP-1

JK4: peptide VQLRRIRVWVIR (SEQ ID NO:5) (JK4)
Chemokine Induction Gro-α (human PBMC [1]; [7]): 245 pg/mL
Chemokine Induction MCP-1 (human PBMC [1]; [7]): 655 pg/mL
Chemokine Induction Gro-α (human PBMC [1]; [8]): 80 pg/mL
Chemokine Induction MCP-1 (human PBMC [1]; [8]): 557 pg/mL

JK3: peptide VQLRAIRVRVIR (SEQ ID NO:4) (JK3)
Chemokine Induction Gro-α (human PBMC [1]; [7]): 430 pg/mL
Chemokine Induction MCP-1 (human PBMC [1]; [7]): 873 pg/mL
Chemokine Induction Gro-α (human PBMC [1]; [8]): 320 pg/mL
Chemokine Induction MCP-1 (human PBMC [1]; [8]): 747 pg/mL

VQRWLIVWRIRK [Peptide 1002]
cytotoxicity (LDH release in human PBMCs, haemolysis of human red blood cells) [4]: minimal cytotoxicity

Nisin Z [reference compound]
Chemokine Induction Gro-α (human PBMC [1]; [11]): 62 pg/mL
Chemokine Induction MCP-1 (human PBMC [1]; [12]): 434 pg/mL
Chemokine Induction Gro-α (human PBMC [1]; [13]): 5811 pg/mL
Chemokine Induction MCP-1 (human PBMC [1]; [14]): 7329 pg/mL
protection in animal challenges against S. aureus (S. aureus): offered protection
MCP-1 Induction (human PBMC [6]): 47 pg/mL
